US11135234B2, “Effective aminoglycoside antibiotic for multidrug-resistant bacteria” (MICROBIAL CHEMISTRY RESEARCH FOUNDATION, priority 2015, dated 2021)
Converted amounts (≈) assume the structure as drawn.

What was measured:
S. aureus RN4220/pMS520 = assay: MIC, agar plate dilution method, S. aureus RN4220/pMS520; assay type: cell-based, Staphylococcus aureus; conditions: for minimal inhibitory concentration (MIC): S. aureus RN4220/pMS520, MRSA; for MIC: Staphylococcus aureus, MRSA, read-out: minimal inhibitory concentration (MIC), S. aureus RN4220/pMS520, MRSA
Method: (§1) As for the representative compounds of a new aminoglycoside antibiotic of the present invention described in Examples, the minimal inhibitory concentration (MIC, μg/mL) was measured for various assay strains of bacteria using an agar plate dilution method in accordance with the method described in the Japan Society of Chemotherapy.

S. marcescens TH-0447 = assay: MIC, agar plate dilution method, S. marcescens TH-0447; assay type: cell-based, Serratia marcescens; conditions: for minimal inhibitory concentration (MIC): S. marcescens TH-0447, AMK-resistant; for MIC: Serratia marcescens, TH0447, S. marcescens TH-0447, AMK-resistant, read-out: minimal inhibitory concentration (MIC)
Method: as §1

P. aeruginosa PAO1/GN315 = assay: MIC, agar plate dilution method, P. aeruginosa PAO1/GN315; assay type: cell-based, Pseudomonas aeruginosa; conditions: for minimal inhibitory concentration (MIC): P. aeruginosa PAO1/GN315, AMK-resistant; for MIC: Pseudomonas aeruginosa, read-out: minimal inhibitory concentration (MIC), P. aeruginosa PAO1/GN315, AMK-resistant
Method: as §1

P. aeruginosa MSC01035 = assay: MIC, agar plate dilution method, P. aeruginosa MSC01035; assay type: cell-based, Pseudomonas aeruginosa; conditions: P. aeruginosa MSC01035, ABK-resistant; for MIC: Pseudomonas aeruginosa, read-out: minimal inhibitory concentration (MIC)
Method: as §1

E. coli JM109/pMW218 = assay: MIC, agar plate dilution method, E. coli JM109/pMW218; assay type: cell-based, Escherichia coli; conditions: for minimal inhibitory concentration (MIC): E. coli JM109/pMW218, Sensitive bacterium; for MIC: Escherichia coli, JM109/PMW218, E. coli JM109/pMW218, Sensitive bacterium, read-out: minimal inhibitory concentration (MIC)
Method: as §1

[1] = tested on: A. baumannii ATCC BAA-1710; assay: MIC, agar plate dilution method, A. baumannii ATCC BAA-1710; assay type: cell-based, Acinetobacter baumannii; conditions: for minimal inhibitory concentration (MIC): A. baumannii ATCC BAA-1710, MDRA; for MIC: Acinetobacter baumannii, ATCCBAA1710, A. baumannii ATCC BAA-1710, MDRA, read-out: minimal inhibitory concentration (MIC)
Method: as §1

S. aureus RN4220 = assay: MIC, agar plate dilution method, S. aureus RN4220; assay type: cell-based, Staphylococcus aureus; conditions: for minimal inhibitory concentration (MIC): S. aureus RN4220, Sensitive bacterium; for MIC: Staphylococcus aureus, RN4220, S. aureus RN4220, Sensitive bacterium, read-out: minimal inhibitory concentration (MIC)
Method: as §1

P. aeruginosa PAO1 = assay: MIC, agar plate dilution method, P. aeruginosa PAO1; assay type: cell-based, Pseudomonas aeruginosa; conditions: for minimal inhibitory concentration (MIC): P. aeruginosa PAO1, Sensitive bacterium; for MIC: Pseudomonas aeruginosa, PAO1, P. aeruginosa PAO1, Sensitive bacterium, read-out: minimal inhibitory concentration (MIC)
Method: as §1

S. marcescens GN6944 = assay: MIC, agar plate dilution method, S. marcescens GN6944; assay type: cell-based, Serratia marcescens; conditions: S. marcescens GN6944, GM-resistant; for MIC: Serratia marcescens, read-out: minimal inhibitory concentration (MIC)
Method: as §1

E. faecium ATCC19434 = assay: MIC, agar plate dilution method, E. faecium ATCC19434; assay type: cell-based, Enterococcus faecium; conditions: for minimal inhibitory concentration (MIC): E. faecium ATCC19434; for MIC: Enterococcus faecium, ATCC19434, E. faecium ATCC19434, read-out: minimal inhibitory concentration (MIC)
Method: as §1

S. aureus MF490 = assay: MIC, agar plate dilution method, S. aureus MF490; assay type: cell-based, Staphylococcus aureus; conditions: for minimal inhibitory concentration (MIC): S. aureus MF490, MRSA; for MIC: Staphylococcus aureus, MRSA, read-out: minimal inhibitory concentration (MIC)
Method: as §1

P. aeruginosa MSC17707 = assay: MIC, agar plate dilution method, P. aeruginosa MSC17707; assay type: cell-based, Pseudomonas aeruginosa; conditions: for minimal inhibitory concentration (MIC): P. aeruginosa MSC17707, AMK-resistant; for MIC: Pseudomonas aeruginosa, MSC17707, P. aeruginosa MSC17707, AMK-resistant, read-out: minimal inhibitory concentration (MIC)
Method: as §1

[2] = tested on: K. pneumoniae ATCC BAA-1705; assay: MIC, agar plate dilution method, K. pneumoniae ATCC BAA-1705; assay type: cell-based, Klebsiella pneumoniae; conditions: for minimal inhibitory concentration (MIC): K. pneumoniae ATCC BAA-1705, KPC-producing strain; for MIC: Klebsiella pneumoniae, ATCCBAA1705, K. pneumoniae ATCC BAA-1705, KPC-producing strain, read-out: minimal inhibitory concentration (MIC)
Method: as §1

[3] = tested on: K. pneumoniae ATCC BAA-2146; assay: MIC, agar plate dilution method, K. pneumoniae ATCC BAA-2146; assay type: cell-based, Klebsiella pneumoniae; conditions: for minimal inhibitory concentration (MIC): K. pneumoniae ATCC BAA-2146, NDM-producing strain; for MIC: Klebsiella pneumoniae, ATCCBAA2146, K. pneumoniae ATCC BAA-2146, NDM-producing strain, read-out: minimal inhibitory concentration (MIC)
Method: as §1

Compound | minimal inhibitory concentration (MIC) (S. aureus RN4220/pMS520) [µg/mL] | minimal inhibitory concentration (MIC) (S. marcescens TH-0447) [µg/mL] | minimal inhibitory concentration (MIC) (P. aeruginosa PAO1/GN315) [µg/mL] | minimal inhibitory concentration (MIC) (P. aeruginosa MSC01035) [µg/mL] | minimal inhibitory concentration (MIC) (E. coli JM109/pMW218) [µg/mL] | minimal inhibitory concentration (MIC) [1] [µg/mL] | minimal inhibitory concentration (MIC) (S. aureus RN4220) [µg/mL] | minimal inhibitory concentration (MIC) (P. aeruginosa PAO1) [µg/mL] | minimal inhibitory concentration (MIC) (S. marcescens GN6944) [µg/mL] | minimal inhibitory concentration (MIC) (E. faecium ATCC19434) [µg/mL] | minimal inhibitory concentration (MIC) (S. aureus MF490) [µg/mL] | minimal inhibitory concentration (MIC) (P. aeruginosa MSC17707) [µg/mL] | minimal inhibitory concentration (MIC) [2] [µg/mL] | minimal inhibitory concentration (MIC) [3] [µg/mL] | MIC (S. aureus RN4220/pMS520) [µg/mL] | MIC (S. marcescens TH-0447) [µg/mL] | MIC (P. aeruginosa PAO1/GN315) [µg/mL] | MIC (P. aeruginosa MSC01035) [µg/mL] | MIC (E. coli JM109/pMW218) [µg/mL] | MIC [1] [µg/mL] | further results
CN[C@@H]1[C@@H](O[C@H]2O[C@H](CO)[C@@H](N)[C@@H](O)[C@H]2O)O[C@H]2C[C@@H](N)[C@@H](O[C@H]3[C@H](O)[C@@H](O)[C@H](N)C[C@@H]3N)O[C@@H]2[C@@H]1O [Compound H3, 3″-epiapramycin] | 4 (≈ 7.41 µM) | 8 (≈ 14.8 µM) | 8 (≈ 14.8 µM) | 8 (≈ 14.8 µM) | 2 (≈ 3.71 µM) | 8 (≈ 14.8 µM) | 4 (≈ 7.41 µM) | 8 (≈ 14.8 µM) | 8 (≈ 14.8 µM) | 16 (≈ 29.7 µM) | 8 (≈ 14.8 µM) | 8 (≈ 14.8 µM) | 2 (≈ 3.71 µM) | 2 (≈ 3.71 µM) | – | – | – | – | – | – | –
CNC1C(OC2OC(CO)C(N)C(O)C2O)OC2CC(N)C(OC3C(N)CC(N)C(O)C3O)OC2C1O (stereo not shown) [Compound I3, 2″,3″-diepiapramycin] | 8 (≈ 14.8 µM) | 32 (≈ 59.3 µM) | 32 (≈ 59.3 µM) | 64 (≈ 119 µM) | 4 (≈ 7.41 µM) | 16 (≈ 29.7 µM) | 8 (≈ 14.8 µM) | 16 (≈ 29.7 µM) | 16 (≈ 29.7 µM) | 32 (≈ 59.3 µM) | 32 (≈ 59.3 µM) | 32 (≈ 59.3 µM) | 4 (≈ 7.41 µM) | 4 (≈ 7.41 µM) | – | – | – | – | – | – | –
CNC1C(O[C@H]2OC(CF)[C@@H](N)[C@H](O)C2O)O[C@H]2CC(N)[C@@H](O[C@@H]3C(N)C[C@@H](N)C(O)[C@H]3O)OC2C1O (stereo partly shown) [Compound J4, 6″-deoxy-6″-fluoroapramycin] | – | – | – | – | – | – | – | – | – | – | – | – | – | – | 4 (≈ 7.39 µM) | 16 (≈ 29.5 µM) | 8 (≈ 14.8 µM) | 16 (≈ 29.5 µM) | 2 (≈ 3.69 µM) | 32 (≈ 59.1 µM) | MIC (S. aureus RN4220): 8 µg/mL (≈ 14.8 µM); MIC (P. aeruginosa PAO1): 8 µg/mL (≈ 14.8 µM); MIC (S. marcescens GN6944): 16 µg/mL (≈ 29.5 µM); MIC (E. faecium ATCC19434): 32 µg/mL (≈ 59.1 µM); MIC (S. aureus MF490): 16 µg/mL (≈ 29.5 µM); MIC (P. aeruginosa MSC17707): 16 µg/mL (≈ 29.5 µM); MIC [2]: 2 µg/mL (≈ 3.69 µM); MIC [3]: 2 µg/mL (≈ 3.69 µM)
CN[C@@H]1[C@@H](O[C@H]2O[C@H](C)[C@@H](N)C[C@H]2O)O[C@H]2C[C@@H](N)[C@@H](O[C@H]3[C@H](O)[C@@H](O)[C@H](N)C[C@@H]3N)O[C@@H]2[C@@H]1O [Compound K4, 3″,6″-dideoxyapramycin] | 2 (≈ 3.94 µM) | 8 (≈ 15.8 µM) | 8 (≈ 15.8 µM) | 16 (≈ 31.5 µM) | 1 (≈ 1.97 µM) | 16 (≈ 31.5 µM) | 2 (≈ 3.94 µM) | 8 (≈ 15.8 µM) | 4 (≈ 7.88 µM) | 8 (≈ 15.8 µM) | 8 (≈ 15.8 µM) | 16 (≈ 31.5 µM) | 2 (≈ 3.94 µM) | 1 (≈ 1.97 µM) | – | – | – | – | – | – | –
CNC1C(O[C@H]2OC(C)[C@@H](N)[C@H](O)C2O)O[C@H]2CC(N)[C@@H](O[C@H]3CC(O)[C@H](N)CC3N)OC2C1O (stereo partly shown) [Compound L5, 5,6″-dideoxyapramycin] | – | – | – | – | – | – | – | – | – | – | – | – | – | – | 1 (≈ 1.97 µM) | 4 (≈ 7.88 µM) | 4 (≈ 7.88 µM) | 8 (≈ 15.8 µM) | 1 (≈ 1.97 µM) | 8 (≈ 15.8 µM) | MIC (S. aureus RN4220): 2 µg/mL (≈ 3.94 µM); MIC (P. aeruginosa PAO1): 4 µg/mL (≈ 7.88 µM); MIC (S. marcescens GN6944): 4 µg/mL (≈ 7.88 µM); MIC (E. faecium ATCC19434): 8 µg/mL (≈ 15.8 µM); MIC (S. aureus MF490): 4 µg/mL (≈ 7.88 µM); MIC (P. aeruginosa MSC17707): 8 µg/mL (≈ 15.8 µM); MIC [2]: 1 µg/mL (≈ 1.97 µM); MIC [3]: 1 µg/mL (≈ 1.97 µM)
